From patent publication US8618285B2, “Triazole derivatives” (Merck Patent GmbH, priority 2005, dated 2013)

The compounds below were run against T1, Recombinant human HSP90α (Homo sapiens, UniProt P07900) (assay: radioligand filter binding test, competitive inhibition of [3H]17AAG binding to HSP90). Conditions: [3H]17AAG 0.08 μM, HSP90 1.5 μg/assay, 22° C., 30 min.
T1 construct: host or cells: E. coli
From the text: The binding of geldanamycin or 17-allylamino-17-demethoxygeldanamycin (17AAG) to HSP90 and competitive inhibition thereof can be utilised in order to determine the inhibitory activity of the compounds according to the invention (Carreras et al. 2003, Chiosis et al. 2002).
In the specific case, a radioligand filter binding test is used. The radio-ligand used here is tritium-labelled 17-allylaminogeldanamycin, [3H]17AAG. This filter binding test allows a targeted search for inhibitors which interfere with the ATP binding site. Material
Recombinant human HSP90α (E. coli expressed, 95% purity); [3H]17AAG (17-allylaminogeldanamycin, [allylamino-2,3-^3H. Specific activity: 1.11×10^12 Bq/mmol (Moravek, MT-1717);
HEPES filter buffer (50 mM HEPES, pH 7.0, 5 mM MgCl2, BSA 0.01%) Multiscreen FB (1 μm) filter plate (Millipore, MAFBNOB 50).
The 96-well microtitre filter plates are firstly irrigated and coated with 0.1% of polyethylenimine.
The test is carried out under the following conditions: • Reaction temperature 22° C. • Reaction time: 30 min., shaking at 800 rpm • Test volume: 50 μl • Final concentrations: • 50 mM HEPES HCl, pH 7.0, 5 mM MgCl2, 0.01% (w/v) BSA • HSP90: 1.5 μg/assay • [3H]17AAG: 0.08 μM.
At the end of the reaction, the supernatant in the filter plate is removed by suction with the aid of a vacuum manifold (Multiscreen Separation System, Millipore), and the filter is washed twice.
The filter plates are then measured in a beta counter (Microbeta, Wallac) with scintillator (Microscint 20, Packard).
“% of control” is determined from the “counts per minutes” values and the IC50 value of a compound is calculated therefrom.

Structure (SMILES)	IC50
CCCCN(C)S(=O)(=O)c1cc(-c2nnc(O)n2-c2ccccc2Cl)c(O)cc1O [A26, 5-[2,4-dihydroxy-5-(N-butyl-N-methylsulfamoyl)phenyl]-4-(2-chloro-phenyl)-3-hydroxy-4H-1,2,4-triazole]	120 nM
CCCN(C)S(=O)(=O)c1cc(-c2nnc(O)n2-c2ccccc2Cl)c(O)cc1O [A28, 5-[2,4-dihydroxy-5-(N-propyl-N-methylsulfamoyl)phenyl]-4-(2-chloro-phenyl)-3-hydroxy-4H-1,2,4-triazole]	160 nM
CN(Cc1ccccc1)S(=O)(=O)c1cc(-c2nnc(O)n2-c2ccccc2Cl)c(O)cc1O [A32, 5-[2,4-dihydroxy-5-(N-benzyl-N-methylsulfamoyl)phenyl]-4-(2-chloro-phenyl)-3-hydroxy-4H-1,2,4-triazole]	140 nM
CCCN(C)S(=O)(=O)c1cc(-c2nnc(O)n2-c2ccccc2CC)c(O)cc1O [A34, 5-[2,4-dihydroxy-5-(N-propyl-N-methylsulfamoyl)phenyl]-4-(2-ethyl-phenyl)-3-hydroxy-4H-1,2,4-triazole]	80 nM
CCCN(C)S(=O)(=O)c1cc(-c2nnc(O)n2-c2cccc(Cl)c2)c(O)cc1O [A38, 5-[2,4-dihydroxy-5-(N-propyl-N-methylsulfamoyl)phenyl]-4-(3-chloro-phenyl)-3-hydroxy-4H-1,2,4-triazole]	330 nM
CCCN(C)S(=O)(=O)c1cc(-c2nnc(O)n2-c2cccc(F)c2)c(O)cc1O [A39, 5-[2,4-dihydroxy-5-(N-propyl-N-methylsulfamoyl)phenyl]-4-(3-fluoro-phenyl)-3-hydroxy-4H-1,2,4-triazole]	180 nM
CCCN(C)S(=O)(=O)c1cc(-c2nnc(O)n2-c2ccccc2C)c(O)cc1O [A40, 5-[2,4-dihydroxy-5-(N-propyl-N-methylsulfamoyl)phenyl]-4-(2-methyl-phenyl)-3-hydroxy-4H-1,2,4-triazole]	140 nM
